# Source: PubChem BioAssay (NCI)
#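 Assay format: 96-well plates, 48-hour exposure. Abbreviation: GI50, concentration required for 50% inhibition of growth. At the TGI there is no net growth.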
# Assays:
# Test in all cases: growth of human tumour cells (NCI), 48 h
# 786-0 renal = tested on: 786-0 renal
# A498 renal = tested on: A498 renal
# A549 NSCLC = tested on: A549 NSCLC
# ACHN renal = tested on: ACHN renal
# BT-549 breast = tested on: BT-549 breast
# CAKI-1 renal = tested on: CAKI-1 renal
# CCRF-CEM leukemia = tested on: CCRF-CEM leukemia
# COLO 205 colon = tested on: COLO 205 colon
# DU-145 prostate = tested on: DU-145 prostate
# HCC-2998 colon = tested on: HCC-2998 colon
# HCT-116 colon = tested on: HCT-116 colon
# HCT-15 colon = tested on: HCT-15 colon
# HL-60(TB) leukemia = tested on: HL-60(TB) leukemia
# HOP-62 NSCLC = tested on: HOP-62 NSCLC
# HOP-92 NSCLC = tested on: HOP-92 NSCLC
# HS 578T breast = tested on: HS 578T breast
# HT29 colon = tested on: HT29 colon
# IGROV1 ovarian = tested on: IGROV1 ovarian
# K-562 leukemia = tested on: K-562 leukemia
# KM12 colon = tested on: KM12 colon
# LOX IMVI melanoma = tested on: LOX IMVI melanoma
# M14 melanoma = tested on: M14 melanoma
# MALME-3M melanoma = tested on: MALME-3M melanoma
# MCF7 breast = tested on: MCF7 breast
# MDA-MB-231 breast = tested on: MDA-MB-231 breast
# MDA-MB-435 = tested on: MDA-MB-435
# MOLT-4 leukemia = tested on: MOLT-4 leukemia
# NCI-H226 lung = tested on: NCI-H226 lung
# NCI-H23 lung = tested on: NCI-H23 lung
# NCI-H460 lung = tested on: NCI-H460 lung
# NCI-H522 lung = tested on: NCI-H522 lung
# NCI/ADR-RES ovarian = tested on: NCI/ADR-RES ovarian
# OVCAR-3 ovarian = tested on: OVCAR-3 ovarian
# OVCAR-4 ovarian = tested on: OVCAR-4 ovarian
# OVCAR-5 ovarian = tested on: OVCAR-5 ovarian
# OVCAR-8 ovarian = tested on: OVCAR-8 ovarian
# PC-3 prostate = tested on: PC-3 prostate
# RPMI-8226 leukemia = tested on: RPMI-8226 leukemia
# RXF 393 renal = tested on: RXF 393 renal
# SF-268 CNS = tested on: SF-268 CNS
# SF-539 CNS = tested on: SF-539 CNS
# SK-MEL-2 melanoma = tested on: SK-MEL-2 melanoma
# SK-MEL-28 melanoma = tested on: SK-MEL-28 melanoma
# SK-MEL-5 melanoma = tested on: SK-MEL-5 melanoma
# SK-OV-3 ovarian = tested on: SK-OV-3 ovarian
# SN12C renal = tested on: SN12C renal
# SNB-19 CNS = tested on: SNB-19 CNS
# SR leukemia = tested on: SR leukemia
# SW-620 colon = tested on: SW-620 colon
# T-47D breast = tested on: T-47D breast
# TK-10 renal = tested on: TK-10 renal
# U251 CNS = tested on: U251 CNS
# UACC-257 melanoma = tested on: UACC-257 melanoma
# UACC-62 melanoma = tested on: UACC-62 melanoma
# UO-31 renal = tested on: UO-31 renal
compound,measurement,setting,value
NC(=S)N/N=C/c1ccc(OC(=O)COc2cc(Cl)c(Cl)cc2Cl)cn1,GI50,786-0 renal,3.54 µM
same,TGI,786-0 renal,> 100 µM
same,GI50,A498 renal,14.2 µM
same,TGI,A498 renal,> 100 µM
same,GI50,A549 NSCLC,24.4 µM
same,TGI,A549 NSCLC,> 100 µM
same,GI50,ACHN renal,3.03 µM
same,TGI,ACHN renal,> 100 µM
same,GI50,BT-549 breast,3.92 µM
same,TGI,BT-549 breast,> 100 µM
same,GI50,CAKI-1 renal,3.97 µM
same,TGI,CAKI-1 renal,> 100 µM
same,GI50,CCRF-CEM leukemia,2.8 µM
same,TGI,CCRF-CEM leukemia,> 100 µM
same,GI50,COLO 205 colon,7.39 µM
same,TGI,COLO 205 colon,> 100 µM
same,GI50,DU-145 prostate,3.52 µM
same,TGI,DU-145 prostate,27.3 µM
same,GI50,HCC-2998 colon,5.84 µM
same,TGI,HCC-2998 colon,> 100 µM
same,GI50,HCT-116 colon,4.25 µM
same,TGI,HCT-116 colon,> 100 µM
same,GI50,HCT-15 colon,6.84 µM
same,TGI,HCT-15 colon,> 100 µM
same,GI50,HL-60(TB) leukemia,3.97 µM
same,TGI,HL-60(TB) leukemia,47.9 µM
same,GI50,HOP-62 NSCLC,3.68 µM
same,TGI,HOP-62 NSCLC,38.4 µM
same,GI50,HOP-92 NSCLC,1.54 µM
same,TGI,HOP-92 NSCLC,26.6 µM
same,GI50,HS 578T breast,51 µM
same,TGI,HS 578T breast,> 100 µM
same,GI50,HT29 colon,17.7 µM
same,TGI,HT29 colon,> 100 µM
same,GI50,IGROV1 ovarian,7.65 µM
same,TGI,IGROV1 ovarian,> 100 µM
same,GI50,K-562 leukemia,5.56 µM
same,TGI,K-562 leukemia,> 100 µM
same,GI50,KM12 colon,5.68 µM
same,TGI,KM12 colon,> 100 µM
same,GI50,LOX IMVI melanoma,3.09 µM
same,TGI,LOX IMVI melanoma,26.6 µM
same,GI50,M14 melanoma,2.38 µM
same,TGI,M14 melanoma,5.75 µM
same,GI50,MALME-3M melanoma,4.96 µM
same,TGI,MALME-3M melanoma,> 100 µM
same,GI50,MCF7 breast,2.09 µM
same,TGI,MCF7 breast,> 100 µM
same,GI50,MDA-MB-231 breast,4.53 µM
same,TGI,MDA-MB-231 breast,> 100 µM
same,GI50,MDA-MB-435,6.68 µM
same,TGI,MDA-MB-435,> 100 µM
same,GI50,MOLT-4 leukemia,4.53 µM
same,TGI,MOLT-4 leukemia,> 100 µM
same,GI50,NCI-H226 lung,15.8 µM
same,TGI,NCI-H226 lung,56.7 µM
same,GI50,NCI-H23 lung,3.26 µM
same,TGI,NCI-H23 lung,> 100 µM
same,GI50,NCI-H460 lung,6.1 µM
same,TGI,NCI-H460 lung,> 100 µM
same,GI50,NCI-H522 lung,3.17 µM
same,TGI,NCI-H522 lung,67.5 µM
same,GI50,NCI/ADR-RES ovarian,3.23 µM
same,TGI,NCI/ADR-RES ovarian,> 100 µM
same,GI50,OVCAR-3 ovarian,3.39 µM
same,TGI,OVCAR-3 ovarian,58.2 µM
same,GI50,OVCAR-4 ovarian,4.83 µM
same,TGI,OVCAR-4 ovarian,> 100 µM
same,GI50,OVCAR-5 ovarian,50.7 µM
same,TGI,OVCAR-5 ovarian,> 100 µM
same,GI50,OVCAR-8 ovarian,2.26 µM
same,TGI,OVCAR-8 ovarian,> 100 µM
same,GI50,PC-3 prostate,4.59 µM
same,TGI,PC-3 prostate,> 100 µM
same,GI50,RPMI-8226 leukemia,7.29 µM
same,TGI,RPMI-8226 leukemia,> 100 µM
same,GI50,RXF 393 renal,3.16 µM
same,TGI,RXF 393 renal,21.4 µM
same,GI50,SF-268 CNS,3.52 µM
same,TGI,SF-268 CNS,43.6 µM
same,GI50,SF-539 CNS,2.37 µM
same,TGI,SF-539 CNS,10.3 µM
same,GI50,SK-MEL-2 melanoma,12.7 µM
same,TGI,SK-MEL-2 melanoma,> 100 µM
same,GI50,SK-MEL-28 melanoma,13.1 µM
same,TGI,SK-MEL-28 melanoma,> 100 µM
same,GI50,SK-MEL-5 melanoma,3.42 µM
same,TGI,SK-MEL-5 melanoma,59.6 µM
same,GI50,SK-OV-3 ovarian,8.49 µM
same,TGI,SK-OV-3 ovarian,> 100 µM
same,GI50,SN12C renal,3.58 µM
same,TGI,SN12C renal,> 100 µM
same,GI50,SNB-19 CNS,5.87 µM
same,TGI,SNB-19 CNS,> 100 µM
same,GI50,SR leukemia,4.7 µM
same,TGI,SR leukemia,> 100 µM
same,GI50,SW-620 colon,5.75 µM
same,TGI,SW-620 colon,> 100 µM
same,GI50,T-47D breast,2.87 µM
same,TGI,T-47D breast,> 100 µM
same,GI50,TK-10 renal,41.9 µM
same,TGI,TK-10 renal,> 100 µM
same,GI50,U251 CNS,3.52 µM
same,TGI,U251 CNS,> 100 µM
same,GI50,UACC-257 melanoma,11 µM
same,TGI,UACC-257 melanoma,51.5 µM
same,GI50,UACC-62 melanoma,3.46 µM
same,TGI,UACC-62 melanoma,22.4 µM
same,GI50,UO-31 renal,3.18 µM
same,TGI,UO-31 renal,> 100 µM
